Experimental data: the supplement of paper PMC10307832

How the values were obtained:
Test in all cases: relative viability (nuclei count vs DMSO), 5 days (fraction); higher = more cells survive
[1] = compound: N=C1NC(=O)/C(=C/c2ccc(O)cc2)S1 [Mirin] + CC1(C)CCC(c2ccc(Cl)cc2)=C(CN2CCN(c3ccc(C(=O)NS(=O)(=O)c4ccc(N[C@H](CCN5CCOCC5)CSc5ccccc5)c(S(=O)(=O)C(F)(F)F)c4)cc3)CC2)C1 [Navitoclax] (partner 0.5 µM)
Summary of the method: (§1)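 Relative viability is defined as nuclei in treated wells over nuclei in vehicle wells. Duplicate plates were run and medians reported. Lung cancer cell lines in 1536-well plates were dosed by pin tool one day after seeding, with one drug or with a fixed anchor-drug dose plus five library-drug doses (not always all listed) in √10 steps, and nuclei were counted after 5 days.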

[2] = compound: CCn1c(-c2nonc2N)nc2cnc(Oc3cccc(NC(=O)c4ccc(OCCN5CCOCC5)cc4)c3)cc21 + Cc1cc(Nc2cc(N3CCN(C)CC3)nc(Sc3ccc(NC(=O)C4CC4)cc3)n2)n[nH]1 [Tozasertib] (partner 0.1 µM)
Summary of the method: as §1

[3] = compound: N=C1NC(=O)/C(=C/c2ccc(O)cc2)S1 [Mirin] + NC(=O)Nc1cc(-c2cccc(F)c2)sc1C(=O)N[C@H]1CCCNC1 [AZD7762] (partner 0.2 µM)
Summary of the method: as §1

[4] = compound: CCC1=CN=CN=C1N2CCN(CC2)CC3=NC4=C(N3)C=C(C=C4)C(F)(F)F + Cc1nc(NC(=O)N2CCC[C@H]2C(N)=O)sc1-c1ccnc(C(C)(C)C(F)(F)F)c1 [Alpelisib] (partner 2 µM)
Summary of the method: as §1

Cell Line	relative viability ([1]; first compound 0.25 µM)	relative viability ([1]; first compound 0.7906 µM)	relative viability ([1]; first compound 2.5 µM)	relative viability ([1]; first compound 7.906 µM)	relative viability ([1]; first compound 25 µM)	relative viability ([2]; first compound 0.04 µM)	relative viability ([2]; first compound 0.1265 µM)	relative viability ([2]; first compound 0.4 µM)	relative viability ([2]; first compound 1.265 µM)	relative viability ([2]; first compound 4 µM)	relative viability ([3]; first compound 0.25 µM)	relative viability ([3]; first compound 0.7906 µM)	relative viability ([3]; first compound 2.5 µM)	relative viability ([3]; first compound 7.906 µM)	relative viability ([3]; first compound 25 µM)	relative viability ([4]; first compound 0.04 µM)	relative viability ([4]; first compound 0.1265 µM)	relative viability ([4]; first compound 0.4 µM)	relative viability ([4]; first compound 1.265 µM)	relative viability ([4]; first compound 4 µM)
RERF-LC-KJ	0.979	0.862	0.989	1.08	1.1	0.528	0.318	0.283	0.249	0.217	1.17	0.878	0.953	0.814	1.08	0.866	0.676	0.834	0.582	0.743
NCI-H1792	0.611	0.529	0.68	0.583	0.695						0.729	0.803	0.826	0.636	0.77	0.696	0.685	0.641	0.503	0.65
NCI-H647	1.05		1.06	1.11	1.08	0.338	0.267	0.29	0.146	0.0969	0.415	0.366	0.465	0.593	0.587	1.16	1.05		1.02	1.05
SK-LU-1	1.05	0.909	0.793	0.772	0.498	0.402	0.371	0.29	0.238	0.218						1.03	0.995	1.04	0.771	1
COR-L 105	1.02	0.817	0.884	0.703	0.719	0.339	0.3	0.308	0.308	0.308						1.07	0.847	0.966	0.893	0.894
NCI-H2023	0.991	0.963	1.01	0.995	0.972	0.363	0.334	0.277	0.16	0.136						0.593	0.576	0.616	0.602	0.571
EBC-1	0.419	0.479	0.456	0.368	0.144											0.962	0.769	0.796	0.697	1.03
ABC-1						0.137	0.153	0.156	0.209	0.176	0.603	0.929	0.628	0.847	0.683	0.987	1	1.08	0.942	0.971
NCI-H1650	1.05	1.53	1.21	1.21	1.06	0.469	0.394	0.386	0.223	0.25										
SK-MES-1	1.2	1.34	1.23	1.19	1.4	0.811	0.657	0.518	0.228	0.21						0.986	1.05	0.852	0.868	0.86
NCI-H1563																0.887	0.92	1	0.986	0.954
NCI-H1648						0.415	0.833	0.88	0.713	0.547	0.722		0.652	0.641	0.576					
NCI-H1299	0.998	1.1	1.09	1.03	1.2											1.09	1.07	1.04	1.03	1.04
A549	1.09	1.38	1.08	1.32	1.31											0.763	0.657	0.849	0.698	0.831
NCI-H1623						0.473	0.396	0.369	0.346	0.457										
NCI-H1703	1.27	1.21	1.26		0.685						0.115	0.148	0.146		0.117	0.462	0.401	0.358	0.25	0.535
NCI-H2228	1.2	0.972	1.35	1.18	1.03	0.297	0.28	0.247	0.208	0.166						0.726	0.931	0.805	0.651	0.675
NCI-H2009	1.17	1.3	1.18	1.11	1.2	0.745	0.635	0.53	0.331	0.275						1.24	1.12	1.12	1.19	1.14
NCI-H522						0.474	0.478	0.544	0.509	0.482	0.813	0.805	0.83	0.861	0.595					
Calu-6	0.879	1	0.839	0.806	0.794											0.891	0.923	0.86	0.822	0.86
ChaGo-K-1	0.974		0.997	0.849	0.85	0.242	0.244	0.232	0.211	0.165	0.832	0.825	0.868	0.835	0.755					
COR-L23	1.02	1.06	1.04	1.07	0.966	0.185	0.165	0.154	0.12	0.135						0.899	0.721	0.886	0.702	0.783
LCLC-103H						0.508	0.463	0.534	0.465	0.419	0.875	0.779	0.784	0.844	0.803	0.901	1.05	0.952	0.932	1.15
NCI-H520	1.03	1.11	1.35	0.829	0.676	0.419	0.368	0.359	0.345	0.378						1.08	0.883	0.838	0.765	1.01
